# US20260028352A1, “MACROCYCLIC IMIDAZO [1,2-B] PYRIDAZINE DERIVATIVE, PREPARATION METHOD THEREFOR, AND USE THEREOF” (SUZHOU LANGRUI BIOPHARMACEUTICAL CO., LTD., priority 2022, published 2026)
# Where two headings read alike, the source gives them in different places.
# Tests used:
# [1] = ether bond
# [2] = molecular target: TRKA^WT kinase (Homo sapiens (Human), UniProt P04629); experiment: Inhibitory activity against TRKA WT kinase (Caliper mobility shift); type: biochemical; details: in vitro kinase assay
# Procedure: (§1) Kinase Assay Process: 1× Kinase buffer was prepared. […] The compounds were serially diluted into 10 concentrations ([…], 0.15, and 0.05 nM) using a Precision 3-fold dilution method. By using the Echo550 liquid handler, 250 nL of the 100-fold final concentration compound was transferred to an OptiPlate-384F plate. a 2.5× final concentration kinase solution was prepared using 1× Kinase buffer. 10 μL of the 2.5× final concentration kinase solution was added to the compound wells and the positive control wells, and 10 μL of 1× Kinase buffer was added to the negative control wells. The plate was centrifuged at 1000 rpm for 30 seconds, vortexed for mixing, and then incubated at room temperature for 10 minutes. A mixture of 5/3× final concentration of ATP and Kinase Substrate 22 was prepared using 1× Kinase buffer. 15 μL of the mixture of the 5/3× final concentration ATP and the substrate was added to initiate the reaction, the 384-well plate was centrifuged at 1000 rpm for 30 seconds, vortexed for mixing, and incubated at room temperature for the required time. 30 μL of the termination solution was added to stop the kinase reaction, the plate was centrifuged at 1000 rpm for 30 seconds, and vortexed for mixing. The conversion rate was measured using the Caliper EZ Reader.
# (§2) Data Analysis: the inhibition rate was calculated as follows:
# (§3) % Inhibition=(Conversion %_max−conversion %_sample)÷(Conversion %_max−conversion %_min)×100
# (§4) Conversion %_sample is the conversion rate reading for the sample; Conversion %_min is the average value of the negative control wells, representing the conversion rate for wells without enzyme activity: Conversion %_max is the average value of the positive control wells, representing the conversion rate for wells without compound inhibition. A dose-response curve was fitted using the log concentration of the compound as the X-axis and the percentage inhibition as the Y-axis. The log(inhibitor) vs. response-variable slope of the GraphPad Prism 5 software was used to fit the dose-response curve, and the IC50 value for each compound was obtained. The calculation formula is:
# (§5) Y=Bottom+(Top−Bottom)/(1+10^((Log IC50−X)*HillSlope)).
# (§6) wherein X represents the concentration of the compound to be tested; Y represents the inhibition rate at the concentration X: Top refers to the maximum response: Bottom refers to the baseline response; HillSlope refers to the slope of the curve (i.e., the gradient).
# [3] = molecular target: TRKA^F589L kinase (Homo sapiens (Human), UniProt P04629, F589L); experiment: Inhibitory activity against TRKA(F589L) kinase (Caliper mobility shift); type: biochemical; details: in vitro kinase assay
# Procedure: as §1, §2, §3, §4, §5, §6
# [4] = tested on: Ba/F3-TPM3-NTRK1-G667C cells; experiment: Growth inhibition of Ba/F3-TPM3-NTRK1-G667C cells (Cell Titer-Glo); type: cell-based; details: for IC50: 72 hours, CTG, read-out: inhibitory activity IC50 Ba/F3-TPM3-NTRK1-G667C
# Method in brief: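 Ba/F3 cells were exposed for 72 hours to serially DMSO-diluted compound at a top final concentration of 10 μM. Viability was read by Cell Titer-Glo luminescence after the plate equilibrated 30 min at room temperature and was then shaken 1 hour in the dark at room temperature.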
# [5] = tested on: Ba/F3-TPM3-NTRK1-G595R cells; experiment: Growth inhibition of Ba/F3-TPM3-NTRK1-G595R cells (Cell Titer-Glo); type: cell-based; details: 72 hours, CTG; read-out: inhibitory activity IC50 Ba/F3-TPM3-NTRK1-G595R
# Procedure: (§7) Then the solutions were subjected to a gradient dilution with DMSO: a clean, sterile V-bottom 96-well microplate was placed in the biological safety cabinet. First, 4 μL of DMSO was added to well B2 and 10 μL of DMSO was added to wells B3-B11 respectively; Next, 6 μL of the 10 mM solution was added to well B2. The microplate was pipetted up and down 10 times for mixing. […] Mixing was performed by pipetting up and down 10 times. The solution was diluted in order until well B10. only DMSO was added to well B11 (no compound).
# (§8) 6× Compound Solution Preparation (6-fold dilution, × represents dilution factor): (Initial final concentration: 10 μM), a clean, sterile V-bottom 96-well microplate was placed in the biological safety cabinet. 99 μL of cell culture medium was added to each well from B2 to G11. By using a 12-channel pipettor, 1 μL of the compound solution prepared in the previous step was added into the corresponding wells. The solutions were pipetted up and down 10 times to mix the solutions. The highest concentration of compound in this step was 60 μM.
# (§9) Treatment of Cells: the above-prepared cell culture plate was taken out of the incubator. 20 μL of compound solution from each well was added to the corresponding cell culture wells. The lowest pipetting speed was used and touching the bottom of the plate was avoided. The culture plate was gently shaked to mix the compound solution, then the plate was returned to the incubator for further culture for 72 hours.
# (§10) The highest treatment concentration of the compound was 10 μM. After 72 hours of treatment, the Cell Titer-Glo (CTG) assay was performed. First, the cell culture plate was removed from the CO2 incubator and allowed to stand at room temperature for 30 minutes to ensure uniform temperature of the plate. The pre-prepared Cell Titer-Glo reagent (following the manufacturer's instructions) was taken and allowed to stand at room temperature to thaw. 60 μL of Cell Titer-Glo reagent was added to each well containing cells. The cells were incubated on a horizontal shaker in a dark place at 225 rpm for 1 hour at room temperature. Then, a Tecan Spark microplate reader was used to read the plate using chemiluminescence according to the manufacturer's instructions.
# [6] = tested on: Ba/F3-TPM3-NTRK1-WT cells; experiment: Growth inhibition of Ba/F3-TPM3-NTRK1-WT cells (Cell Titer-Glo); type: cell-based; details: 72 hours, CTG; read-out: inhibitory activity IC50 Ba/F3-TPM3-NTRK1-WT
# Procedure: as §7, §8, §9, §10
# [7] = tested on: Ba/F3-TPM3-NTRK1-WT subcutaneous xenograft; experiment: Efficacy in Ba/F3-TPM3-NTRK1-WT subcutaneous xenograft tumor model; type: in vivo, NOD-SCID mice
# Procedure: Cell culture: Ba/F3-TPM3-NTRK1-WT cells were cultured in RPMI 1640 medium containing 10% FBS. Ba/F3-TPM3-NTRK1-WT cells in logarithmic growth phase were collected, the required total number of cells was calculated, and the cells were resuspended in a suitable volume of PBS mixture (PBS:Matrigel=1:1 (v/v)) with a cell suspension concentration of 5×106/0.1 mL for subcutaneous inoculation on the right side of NOD-SCID mice.
# Method: On Day 0, all animals were subcutaneously inoculated with 0.1 mL (5×10^6 Ba/F3-TPM3-NTRK1-WT cells) of cell suspension (PBS:Matrigel=1:1, VN) on the right back. After the tumor growed to an average volume of 178.3 mm3, the mice were grouped and administrated. The average tumor volume of the enrolled animals is 178.3 mm^3. The mice were divided into two groups. Group-1 (Vehicle) and Group-2 (10 mg/kg, I-52). Each group consisted of 6 animals. All groups were administered orally by gavage with a frequency of BID, for a total of 29 days.
# (§11) Tumor volume inhibition rate TGITV (%): TGI %=(1−ΔT/ΔC)×100%, wherein ΔC is the tumor volume Ct−C0 of the control group, C0 is the average tumor volume of the control group at the time of grouping, Ct is the average tumor volume of the control group after treatment, ΔT is the tumor volume Tt−T0 of the treatment group, T0 is the average tumor volume of the […] after treatment.
# Pharmacological activity was evaluated based on tumor suppression rate (TGITV), and tolerance was evaluated based on changes in animal weight and mortality.
# [8] = tested on: Ba/F3-TPM3-NTRK1-G667C subcutaneous xenograft; experiment: Efficacy in Ba/F3-TPM3-NTRK1-G667C subcutaneous xenograft tumor model; type: in vivo, NOD-SCID mice; details: 10 mg/kg oral BID
# Procedure: Cell Culture: Ba/F3-TPM3-NTRK1-G667C cells were cultured in RPMI 1640 medium containing 10% FBS. Log-phase cells were collected, and the total number of cells required was calculated. Cells were resuspended in an appropriate volume of PBS mixture solution (PBS:Matrigel=1:1, v/v) at a concentration of 5×10^6 cells/0.1 mL for subcutaneous inoculation into the right flank of NOD-SCID mice.
# Method: at Day 0, all animals were subcutaneously inoculated with 0.1 mL (5×10^6 cells) of Ba/F3-TPM3-NTRK1-G667C cell suspension (PBS:Matrigel=1:1, v/v) on the right flank. When the tumors reached an average volume of 197.2 mm^3, dosing and grouping began. […] The animals were divided into two groups: Group 1: Vehicle control; Group 2: 10 mg/kg of compound 1-52. Each group contained six mice. All groups were administered orally via gavage twice daily (BID) for 29 days.
# as §11, with “Tumor Volume Inhibition Rate TGITV(%):” for “Tumor volume inhibition rate TGITV (%):”, “TGI %=(1−ΔT/ΔC)×100%; Where:” for “TGI %=(1−ΔT/ΔC)×100%, wherein”, “group, To” for “group, T0”
# Pharmacological activity was evacuated based on tumor suppression rate (TGITV), and tolerance was assessed based on changes in animal weight and mortality.
# Sequence of TRKA^F589L kinase (P04629 33-796 F589L): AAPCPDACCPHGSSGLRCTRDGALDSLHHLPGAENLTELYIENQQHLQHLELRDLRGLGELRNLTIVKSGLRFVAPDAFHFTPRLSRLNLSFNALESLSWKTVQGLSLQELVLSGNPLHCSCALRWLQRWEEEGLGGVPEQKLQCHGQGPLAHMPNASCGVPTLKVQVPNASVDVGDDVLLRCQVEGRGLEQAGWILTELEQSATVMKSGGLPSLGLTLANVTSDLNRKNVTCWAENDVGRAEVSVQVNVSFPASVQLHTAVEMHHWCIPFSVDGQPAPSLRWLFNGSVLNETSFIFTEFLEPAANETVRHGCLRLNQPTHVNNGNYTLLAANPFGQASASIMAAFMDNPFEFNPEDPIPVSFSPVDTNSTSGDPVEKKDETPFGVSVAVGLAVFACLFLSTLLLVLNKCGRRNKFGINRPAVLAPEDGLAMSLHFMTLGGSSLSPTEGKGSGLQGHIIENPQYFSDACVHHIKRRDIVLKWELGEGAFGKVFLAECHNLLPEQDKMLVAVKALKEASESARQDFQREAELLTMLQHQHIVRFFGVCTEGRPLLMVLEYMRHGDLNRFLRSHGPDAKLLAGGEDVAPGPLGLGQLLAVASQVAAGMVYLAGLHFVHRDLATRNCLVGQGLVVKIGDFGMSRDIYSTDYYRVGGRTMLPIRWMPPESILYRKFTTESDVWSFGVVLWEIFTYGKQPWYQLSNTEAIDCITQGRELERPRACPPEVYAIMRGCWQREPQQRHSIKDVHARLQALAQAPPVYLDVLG
# Sequence of TRKA^WT kinase (P04629 33-796): as the sequence (P04629 33-796 F589L) above, with L557F counted along it
compound,measurement,setting,value
"CC1Nc2ccc3ncc(n3n2)-c2cc(ccn2)COc2c(F)cc(F)cc21 (centres unmarked) [Example I-2, (E)-5^4,5^6-difluoro-6-methyl-4-oxa-7-aza-1(3,6)-imidazo[1,2-b]pyridazine-2(2,4)-pyridina-5(1,2)-benzenacycloheptaphane]","ring closure, isolated yield","[1]; from CC(Nc1ccc2ncc(-c3cc(CO)ccn3)n2n1)c1cc(F)cc(F)c1O, 13-membered ring, SOCl2, K2CO3, DCM/DMF, 15.2 mM, 90.0 °C, 1.5 h, 2 steps",11.2%
same,IC50,[2],2.59 nM
same,IC50,[3],6.2 nM
same,IC50,[4],32.5 nM
same,inhibitory ability compared with TPX-0005,[4]; comparison in words,stronger than that of compound TPX-0005
same,IC50,[5],245 nM
same,IC50,[6],24.8 nM
"(E)-4-methyl-6-oxa-3-aza-2(3,6)-imidazo [1,2-b]pyridazina-1(2,4)-pyridina-5(1,2)-benzenacyclooctaphane","ring closure, isolated yield","[1]; 14-membered ring, PPh3/DIAD, THF, 15.8 mM, 60.0 °C",18.4%
"CC1Nc2ccc3ncc(n3n2)-c2cc(ccn2)COc2ncccc21 (centres unmarked) [Example I-4, (E)-6-methyl-4-oxa-7-aza-1(3,6)-imidazo[1,2-b]pyridazina-2(2,4), 5(2,3)-dipyridinacycloheptaphane]","ring closure, isolated yield","[1]; from CC(Nc1ccc2ncc(-c3cc(CO)ccn3)n2n1)c1cccnc1O, 13-membered ring, SOCl2, K2CO3, DCM/DMF, 22.0 mM, 90.0 °C, 2.0 h, 2 steps",30.2%
same,IC50,[2],< 3 nM
same,IC50,[3],5.8 nM
same,IC50,[4],< 100 nM
"CC1Nc2ccc3ncc(n3n2)-c2cc(ccn2)OCc2ncc(F)cc21 (centres unmarked) [Example I-12, (E)-5^5-fluoro-6-methyl-3-oxa-7-aza-1(3,6)-imidazo[1,2-b]pyridazina-2(2,4), 5(2,3)-dipyridinacycloheptaphane]","ring closure, isolated yield","[1]; from CC(Nc1ccc2ncc(-c3cc(O)ccn3)n2n1)c1cc(F)cnc1CO, 13-membered ring, SOCl2, then K2CO3, DCM/DMF, then DMF (DCM evaporated), 15.7 mM, 90.0 °C, 2.0 h, 2 steps",22.6%
same,IC50,[4],< 100 nM
"Fc1cnc2c(c1)[C@H]1C[C@H](F)CN1c1ccc3ncc(n3n1)-c1cc(ccn1)CO2 [Example I-52, (14bR,16S,E)-13,16-difluoro-14b,15,16,17-tetrahydro-9H-1,19-etheno-4,8-(metheno)imidazo[1,5-h]pyrido[2,3-b]pyrrolo[2,1-d][1]oxa[5,7,8,11]tetraazacyclopentadecine]",IC50,[4],0.88 nM
same,IC50,[5],0.3 nM
same,IC50,[6],0.02 nM
same,Average Tumor Volume,"[7]; Day 4, 10 mg/kg oral BID",182.5 mm^3
same,Average Tumor Volume,"[7]; Day 6, 10 mg/kg oral BID",192.7 mm^3
same,Average Tumor Volume,"[7]; Day 8, 10 mg/kg oral BID",176.5 mm^3
same,Average Tumor Volume,"[7]; Day 10, 10 mg/kg oral BID",146.3 mm^3
same,Average Tumor Volume,"[7]; Day 12, 10 mg/kg oral BID",113.1 mm^3
same,Average Tumor Volume,"[7]; Day 14, 10 mg/kg oral BID",74.4 mm^3
same,Average Tumor Volume,"[7]; Day 15, 10 mg/kg oral BID",67.9 mm^3
same,Average Tumor Volume,"[7]; Day 17, 10 mg/kg oral BID",60.1 mm^3
same,Average Tumor Volume,"[7]; Day 19, 10 mg/kg oral BID",32.8 mm^3
same,Average Tumor Volume,"[7]; Day 21, 10 mg/kg oral BID",0.0 mm^3
same,Average Tumor Volume,"[7]; Day 23, 10 mg/kg oral BID",0.0 mm^3
same,Average Tumor Volume,"[7]; Day 25, 10 mg/kg oral BID",0.0 mm^3
same,Average Tumor Volume,"[7]; Day 27, 10 mg/kg oral BID",0.0 mm^3
same,TGITV,"[7]; Day 29, 10 mg/kg oral BID",112%
same,Tumor Regression Rate,"[7]; Day 29, 10 mg/kg oral BID",100%
same,Tumor Volume (average),"[7]; Day 29, 10 mg/kg oral BID",0.0 mm^3
same,Average Tumor Volume,"[7]; Day 29, 10 mg/kg oral BID (Table 7)",0.0 mm^3
same,Average Body Weight,[8]; Day 2,19.1 g
same,Average Body Weight,[8]; Day 7,20.9 g
same,Average Body Weight,[8]; Day 9,21.0 g
same,Average Body Weight,[8]; Day 11,21.8 g
same,Average Body Weight,[8]; Day 13,22.0 g
same,Average Body Weight,[8]; Day 15,22.8 g
same,Average Body Weight,[8]; Day 17,23.0 g
same,Average Body Weight,[8]; Day 19,23.7 g
same,Average Body Weight,[8]; Day 21,23.3 g
same,Average Body Weight,[8]; Day 23,24.3 g
same,Average Body Weight,[8]; Day 25,24.7 g
same,Average Body Weight,[8]; Day 27,25.3 g
same,Average Body Weight,[8]; Day 29,24.6 g
same,Relative Tumor Volume (average),[8]; Day 29,308.6%
same,TGITV,[8]; Day 29,84%
same,Tumor Volume (average),[8]; Day 29,636.5 mm^3
